In patent US11396501B2, “Heteroaryl compounds as CXCR4 inhibitors, composition and method using the same” (CGENETECH (SUZHOU, CHINA) CO., LTD., priority 2017, dated 2022):

Legend:
CXCR4 [1] = molecular target: T1, CXCR4 (Homo sapiens, UniProt P61073); assay: FLIPR Tetra calcium mobilization assay; assay type: cell-based; details: Human CD4+ T-Cells; CXCL12 added; FLIPR Calcium 4 assay kit
Method: FLIPR Tetra Calcium Mobilization Assay The FLIPR Tetra calcium mobilization assay was performed by HD Bioscience. Briefly, The Molecular Devices, Fluorescent Imaging Plate Reader (FLIPR) Tetra was used in this assay. Excitation was achieved through unique placement of LED's within the instrument and emission captured by a CCD camera (EMCCD camera for FI and ICCD camera for luminescence). The homogeneous FLIPR Calcium 4 assay kit from Molecular Devices was used as the fluorescence reagent. Compounds were solubilized in 100% dimethyl sulfoxide (DMSO) to a concentration of 30 mM. A 10-point, 4-fold, intermediate dilution series was created in 100% DMSO with a top concentration of 4 mM and a bottom concentration of 0.01 μM. A near assay ready, direct dilution plate ([…]) was prepared from this compound dilution plate by transferring 1 μL of each dilution of compound in 100% DMSO to a Greiner #781201 plate. In addition, each […] plate also contained positive and negative control wells to define the upper and lower limits for the assay signal. The final assay concentration range of compound was 10 μM to 0.035 nM in 0.5% DMSO. Human CD^4+ T-Cells were isolated from human whole blood and subsequently activated and expanded using a CD3/CD28 expansion kit (Life Technologies). The cells were frozen in ThermoFisher-formulated Recovery Cell Culture Freezing Medium containing 10% Dimethyl sulfoxide (DMSO) and 10% Fetal Bovine Serum (FBS) (ThermoFisher Catalog No. 10100147). When used, cells were resuspended using room temperature 1× HBSS/20 mM HEPES/0.005% P-104 assay buffer, adjusted the volume of the suspension to achieve a cell concentration of 2.5×10^6 cells/mL. 2× Calcium 4 dye (20 μL/well) were added and the mixture were centrifuged briefly ( 10 s) and stopped when it reached 1000 rpm. The plates were allowed to equilibrate before compounds and CXCL12 were added to the plates. The raw data were analyzed using Abase. The percent (%) effect at each concentration of compound was calculated by Abase and was based on and relative to the amount of calcium produced in the positive and negative control wells contained within each assay plate. The concentrations and % effect values for tested compounds were plotted by Abase and the concentration of compound required for 50% effect (IC50) was determined with a four-parameter logistic dose response equation. FIGS. 3 and 4 summarize the results of Compounds A78 and A83 in the calcium mobilization assay.

CXCR4 [2] = molecular target: T1, CXCR4; assay: HPB-ALL CXCR4 competitive binding assay (12G5 binding assay); set-up: HPB-ALL cells were maintained in RPMI-1640 (Gibico) supplemented with 10% FBS (Hyclone); endogenous in cells; host or cells: HPB-ALL cells; details: HPB-ALL cells; competition with APC-conjugated anti-human CXCR4 clone 12G5 at its EC80; 4° C. for 3 h; FACS
Method: HPB-ALL CXCR4 Competitive Binding Assay
HPB-ALL cells were maintained in RPMI-1640 (Gibico) supplemented with 10% FBS (Hyclone). APC-conjugated anti-human CXCR4 was from Sungene. EC80 was first determined for 12G5 binding to CXCR4. Then the compounds for testing were added into 96-well plates serially diluted at a ratio of 1:3. Cells were washed once with ice-cold assay buffer (DPBS+2% HI-FBS) and then re-suspended in the same buffer at a final concentration of 1×10^6/mL. Cell suspension was then added into the wells and with the addition of APC-conjugated anti-human CXCR4 clone 12G5 at its EC80 determined. The mix of cell, compounds and APC-conjugated anti-human CXCR4 were incubated at 4° C. for 3 h before addition of 100 μL of 4% PFA. Cells were then washed once and resuspended in assay buffer and examined by FACS. The percent (%) effect at each concentration of compound was calculated and relative to the amount of calcium produced in the positive and negative control wells contained within each assay plate. The concentrations and % effect values for tested compounds were plotted and the concentration of compound required for 50% effect (IC50) was determined. Tables 2 summarize results of the CXCR4 competitive binding assay for selected compounds disclosed in the present disclosure. FIGS. 1-2 depict the IC50 curves of compounds A42 and A43.

T1 sequence (P61073 whole entry): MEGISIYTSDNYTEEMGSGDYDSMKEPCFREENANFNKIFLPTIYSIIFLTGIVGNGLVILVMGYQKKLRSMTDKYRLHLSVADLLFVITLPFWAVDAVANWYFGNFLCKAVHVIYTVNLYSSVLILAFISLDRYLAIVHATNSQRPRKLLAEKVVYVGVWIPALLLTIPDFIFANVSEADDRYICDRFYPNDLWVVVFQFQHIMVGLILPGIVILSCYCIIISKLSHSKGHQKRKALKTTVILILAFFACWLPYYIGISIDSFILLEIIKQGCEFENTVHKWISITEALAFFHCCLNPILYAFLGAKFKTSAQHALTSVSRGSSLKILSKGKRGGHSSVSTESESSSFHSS

IC50 (CXCR4 [1]) | IC50 (CXCR4 [2]) | Structure (SMILES)
55 nM |  | Cc1nc(CN(C)c2cc(NS(C)(=O)=O)cc3cccnc23)cc(N2CCN(C)CC2)n1 [Compound D58, N-(8-(methyl((2-methyl-6-(4-methylpiperazin-1-yl)pyrimidin-4-yl)methyl)amino)quinolin-6-yl)methane sulfonamide]
3 nM |  | Cc1nc(CN(C)c2cc(Br)cc3cccnc23)cc(N2CCN(C)CC2)n1 [Compound D45]
4.5 nM |  | Cc1nc(CN(C)c2cc(F)cc3cccnc23)cc(N2CCN(C)CC2CO)n1 (stereo not shown) [Compound D52]
6.3 nM |  | Cc1nc(CN(C)c2ccc(Br)c3cccnc23)cc(N2CCN(C)CC2)n1 [Compound D41]
0.046 nM |  | Cc1nc(CN(C)C2CCOc3cccnc32)cc(N2CCN(C)CC2)n1 (stereo not shown) [Compound A90]
2.9 nM |  | COc1nc(CN(C)c2cccc3cccnc23)cc(N2CCN(C)CC2)n1 [Compound D13]
2850 nM |  | Cc1nc(CN(C)c2ccc(C(F)(F)F)c3cccnc23)cc(N2CCN(C)CC2)n1 [Compound D40]
1.8 nM |  | Cc1nc(CN2CCC[C@H]2c2ncccc2C)c(C#N)c(N2CCN(C)CC2)n1 [Compound C34]
5.5 nM |  | Cc1nc(CN(C)c2c(CO)ccc3cccnc23)cc(N2CCN(C)CC2)n1 [Compound D56]
450 nM |  | Cc1nc(CN(C)c2c(NS(C)(=O)=O)ccc3cccnc23)cc(N2CCN(C)CC2)n1 [Compound D59]
0.59 nM |  | CCc1nc(CN(C)c2cccc3cccnc23)cc(N2CCN(C)CC2)n1 [Compound D9]
4.5 nM |  | Cc1nc(CN(C)c2c(Br)ccc3cccnc23)cc(N2CCN(C)CC2)n1 [Compound D49]
104 nM |  | Cc1nc(CN(C)c2cc(C(F)(F)F)cc3cccnc23)cc(N2CCN(C)CC2)n1 [Compound D44]
2.9 nM |  | CN1CCN(c2cc(CN(C)c3cccc4cccnc34)nc(C3CC3)n2)CC1 [Compound D10]
0.18 nM |  | CN1CCN(c2cccc3nc(CN(C)c4cccc5cccnc45)cn23)CC1 [Compound D38]
0.086 nM |  | C[C@@H](c1ccccn1)N(C)Cc1nc2cccc(N3CCN(C)CC3)n2c1CO [Compound A96, (S)-(2-((methyl(1-(pyridin-2-yl)ethyl)amino)methyl)-5-(4-methylpiperazin-1-yl)imidazo[1,2-a]pyridin-3-yl)methanol]
14 nM |  | Cc1nc(CN(C)c2c(C#N)ccc3cccnc23)cc(N2CCN(C)CC2)n1 [Compound D50, 8-(methyl((2-methyl-6-(4-methylpiperazin-1-yl)pyrimidin-4-yl)methyl)amino)quinoline-7-carbonitrile]
1.7 nM |  | Cc1nc(CN(CCCCNC(=O)OC(C)(C)C)c2cccc3cccnc23)cc(N2CCN(C)CC2)n1 [Compound D27]
4.5 nM |  | C[C@@H](c1ccccn1)N(C)Cc1cc(N2CCN(C)CC2)nc(CO)n1 [Compound A81]
0.5 nM |  | Cc1nc(CN2CCC[C@H]2c2ncccc2C)cc(N2CCCN(C)CC2)n1 [Compound C36]
12400 nM |  | Cc1nc(CN(C)c2ncnc3cccnc23)cc(N2CCN(C)CC2)n1 [Compound D24]
96 nM |  | Cc1nc(CN(C)c2ccc(C#N)c3cccnc23)cc(N2CCN(C)CC2)n1 [Compound D42]
0.13 nM |  | Cc1nc(CN(C)[C@@H](C)c2ccccn2)c(CO)c(N2CCN3CCC[C@@H]3C2)n1 [Compound A86]
1580 nM |  | Cc1nc(CN(C)c2nccc3cccnc23)cc(N2CCN(C)CC2)n1 [Compound D21, N-methyl-N-((2-methyl-6-(4-methylpiperazin-1-yl)pyrimidin-4-yl)methyl)-1,7-naphthyridin-8-amine]
0.93 nM |  | C[C@@H](c1ccccn1)N(C)Cc1cc(N2CCN(C)CC2)nc(N)n1 [Compound A83]
0.13 nM |  | C[C@@H](c1ccccn1)N(C)Cc1cn2c(N3CCN(C)CC3)cccc2n1 [Compound A95, (S)-N-methyl-N-((5-(4-methylpiperazin-1-yl)imidazo[1,2-a]pyridin-2-yl)methyl)-1-(pyridin-2-yl)ethan-1-amine]
 | 161 nM | Cc1nc(CN(C)C2CC3(CC3)Cc3cccnc32)cc(N2CCN(C)CC2)n1 (stereo not shown) [Compound A46]
 | 54 nM | Cc1nc(CN(C)[C@H]2CCCc3cccnc32)cc(NCCCN2CCOCC2)n1 [Compound A70]

IC50 (CXCR4 [1]) | IC50 (CXCR4 [2]) | Structure (SMILES)
 | 27 nM | Cc1nc(CN(C)[C@H]2CCCc3cccnc32)cc(N2CCN3CCC[C@H]3C2)n1 [Compound A69]
 | 63 nM | Cc1nc(CN(CC2CC2)C2CCCc3cccnc32)cc(N2CCN(C)CC2)n1 (stereo not shown) [Compound A59]
 | 94 nM | CN(C)C1CCN(c2cc(CN(C)C3CCCc4cccnc43)ncn2)C1 (stereo not shown) [Compound A39]
 | 123 nM | Cc1nc(CN(C)[C@H]2CCCc3cccnc32)cc(N2CCN(C3COC3)CC2)n1 [Compound A49]
 | 1710 nM | Cc1nc([C@H]2CC(F)(F)CN2[C@H]2CCCc3cccnc32)cc(N2CCN(C)CC2)n1 [Compound C19]
 | 110 nM | CSc1nc(CN(C)C2c3ncccc3CCC23CC3)cc(N2CCN(C)CC2)n1 (stereo not shown) [Compound A40]
 | 21 nM | Cc1nc(CN(C)[C@H]2CCCc3cccnc32)cc(N2CCN(C)C[C@@H]2C)n1 [Compound A64]
 | 11 nM | CCN1CCN(c2cc(CN(C)[C@H]3CCCc4cccnc43)nc(C)n2)CC1 [Compound A43]
 | 8000 nM | CN1CCN(c2cc(CN(C)C3CCCc4cccnc43)nc(N3CCCC3)n2)CC1 (stereo not shown) [Compound A13]
 | 41 nM | CN(Cc1cc(NCCN2CCOCC2)ncn1)C1CCCc2cccnc21 (stereo not shown) [Compound A26]
 | 20 nM | Cc1nc([C@H]2CCCN2[C@H]2CCCc3cccnc32)cc(N2CCN(C)CC2)n1 [Compound C5]
 | 100 nM | CN(C)C1CCN(c2cc(CN(C)C3CCCc4cccnc43)ncn2)CC1 (stereo not shown) [Compound A25]
 | 8110 nM | Cc1nc([C@H]2CCN2[C@@H]2CCCc3cccnc32)cc(N2CCN(C)CC2)n1 [Compound C14]
 | 165 nM | Cc1nc(CN2CCCC2c2ccccn2)cc(N2CCN(C)CC2)n1 (stereo not shown) [Compound C12]
 | 68 nM | Cc1nc(CN2CCC[C@H]2c2ncccc2C)cc(N2CCN(C)CC2)n1 [Compound C25]
 | 44 nM | Cc1ccc(C(C)N(C)Cc2cc(N3CCN(C)CC3)nc(C)n2)nc1 (stereo not shown) [Compound A55]
 | > 10000 nM | CN(C)c1ncc(CN(C)C2CCCc3cccnc32)c(NCCN)n1 (stereo not shown) [Compound B8, reference compound]
 | 7.9 nM | CSc1nc(CN(C)C2CCCc3cccnc32)c(C)c(N2CCN(C)CC2)n1 (stereo not shown) [Compound A27]
 | 296 nM | CCN(Cc1cc(N2CCN(C)CC2)nc(C)n1)C1c2ncccc2CCC12CC2 (stereo not shown) [Compound A44]
 | 97 nM | Cc1nc(CN(C)C2c3ncccc3CCC23CC3)cc(N2CCN(C)CC2)n1 (stereo not shown) [Compound A41]
 | 606 nM | CN1CCN(c2cc(CN(C)C3CCCc4cccnc43)nc(N(C)CCO)n2)CC1 (stereo not shown) [Compound A15]
 | 210 nM | CC(C)Nc1nc(CN(C)C2CCCc3cccnc32)cc(N2CCN(C)CC2)n1 (stereo not shown) [Compound A20]
 | 62 nM | Cc1nc([C@H]2CCN2[C@H]2CCCc3cccnc32)cc(N2CCN(C)CC2)n1 [Compound C13]
 | 2320 nM | CSc1nc([C@@H]2CCCN2[C@@H]2CCCc3cccnc32)cc(N2CCN(C)CC2)n1 [Compound C4]
 | 17 nM | CN1CCN(c2cc(CN(C)C3CCCc4cccnc43)nc(N)n2)CC1 (stereo not shown) [Compound A16]
 | 67 nM | CCNc1nc(CN(C)C2CCCc3cccnc32)cc(N2CCN(C)CC2)n1 (stereo not shown) [Compound A19]
 | 8000 nM | CN1CCN(c2cc(CN(C)C3CCCc4cccnc43)nc(N(C)C)n2)CC1 (stereo not shown) [Compound A12]
